US8536165B2, “Azabiphenylaminobenzoic acid derivatives as DHODH inhibitors” (Almirall, S.A., priority 2007, dated 2013)
pIC50: −log10 of the molar value.

Columns and labels:
human DHODH = human DHODH (Homo sapiens (Human), UniProt Q02127); experiment: Inhibition of Human DHODH Activity Assay; type: biochemical; conditions: chromogen reduction assay with DCIP, human enzyme extract, 10 min at room temperature; read-out: hDHODH IC50
Procedure: DHODH activity and its inhibition were studied using a chromogen reduction assay with DCIP (2,6-dichlorophenol-indophenol). […] Enzyme extracts (8 μl, ˜1.5 μg of human protein) were incubated in 96-well plates. The assay mixture (200 μl) contained 200 μM CoQD, 100 μM L-DHO, 120 μM DCIP in the assay buffer (100 mM HEPES pH 8.0, 150 mM NaCl, 10% Glicerol, 0.05% Triton X-100) and 2 μl of test compound. The compounds were dissolved in DMSO at a stock concentration of 1 mM, and tested at different concentrations […] to calculate an IC50 (concentration of inhibitor required for 50% of inhibition).
The reaction was initiated by adding the enzyme and then incubated for 10 min at room temperature before measuring DCIP reduction by counting a decrease in absorbance at 600 nm using standard instrumentation (Spectramax).
All reactions were carried out in duplicate and graphs, determining IC50 values for each compound, were plotted using the ABase software.

HIV = conditions: at concentration that can be obtained with conventional dosing; cited from earlier work

Sequence of human DHODH (Q02127 whole entry): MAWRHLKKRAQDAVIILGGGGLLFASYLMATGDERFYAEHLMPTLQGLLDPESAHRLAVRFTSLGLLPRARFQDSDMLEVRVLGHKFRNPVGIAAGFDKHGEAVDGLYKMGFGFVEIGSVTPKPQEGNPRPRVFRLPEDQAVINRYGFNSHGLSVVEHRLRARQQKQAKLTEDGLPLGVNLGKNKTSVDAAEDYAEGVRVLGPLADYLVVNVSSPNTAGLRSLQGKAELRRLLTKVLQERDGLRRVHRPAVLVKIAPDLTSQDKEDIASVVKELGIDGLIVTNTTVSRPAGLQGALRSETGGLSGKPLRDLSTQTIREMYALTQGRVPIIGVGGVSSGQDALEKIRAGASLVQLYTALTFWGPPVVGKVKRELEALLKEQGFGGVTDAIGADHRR

| pIC50 (human DHODH) | SMILES | reduction of HIV replication (HIV) |
| --- | --- | --- |
| 7.68 | O=C(O)c1cc(C2CC2)ccc1Nc1cnc(-c2cc(C(F)(F)F)ccc2F)nc1 [Example 104, 5-Cyclopropyl-2-(2-(2-fluoro-5-(trifluoromethyl)phenyl)pyrimidin-5-ylamino)benzoic acid] |  |
|  | Cc1oncc1C(=O)Nc1ccc(C(F)(F)F)cc1 [Leflunomide] | about 75% |
